Data reported in patent publication US7989165B2, “Tape stripping methods for analysis of skin disease and pathological skin state” (DermTech International, priority 2004, dated 2011).
Where “and” joins values, the source holds several entries; their conditions need not be identical. Equal entries are not always repeated.

Experiments:
Format in all cases: in vivo, human
Krt-16 mRNA = assay: RT-PCR of keratin-16 mRNA relative to β-actin in SLS-irritated and control skin (tape and biopsy); set-up: key to ΔCt,Krt-16, Tape, SLS / ΔCt,Krt-16, Biopsy, SLS: ΔCt: keratin mRNA Ct normalized to β-actin Ct in same sample
From the text: (§1) The samples analyzed in this study are those described in the protocol performed by Wong et al. (Wong, Tran et al. 2004). […] Patches were removed and equivalent skin sites were biopsied and tape stripped as described in the Examples above. As an additional control, normal skin was also biopsied and tape stripped. Samples were processed for total RNA and assayed for keratin-10, keratin-16, keratin-17 and β-actin mRNA. The keratin mRNAs were normalized to β-actin mRNA in each sample. The semi-quantitative RT-PCR assay has been previously described (Wong, Tran et al. 2004).

Krt-10 mRNA = assay: RT-PCR of keratin-10 mRNA relative to β-actin in SLS-irritated and control skin (tape and biopsy); set-up: key to ΔCt,Krt-10, Tape, SLS / ΔCt,Krt-10, Biopsy, SLS: ΔCt: keratin mRNA Ct normalized to β-actin Ct in same sample; settings: for ΔCt,Krt-10, Biopsy, SLS / ΔCt,Krt-10, Tape, SLS: 1% SLS occlusive patch 24 hours, mid-back, relative to β-actin, per subject 1-10 and Average; for ΔCt,Krt-10, Biopsy, SLS / Fold Increase Krt-10/β-actin mRNA vs. normal, Biopsy, SLS: biopsy RNA; for ΔCt,Krt-10, Biopsy, SLS / ΔCt,Krt-10, Tape, SLS / Fold Increase Krt-10/β-actin mRNA vs. normal, Biopsy, SLS / Fold Increase Krt-10/β-actin mRNA vs. normal, Tape, SLS: sulfate; for ΔCt,Krt-10, Tape, SLS / Fold Increase Krt-10/β-actin mRNA vs. normal, Tape, SLS: tape-stripped RNA; for Fold Increase Krt-10/β-actin mRNA vs. normal, Biopsy, SLS / Fold Increase Krt-10/β-actin mRNA vs. normal, Tape, SLS: 1% SLS patch 24 hours vs untreated skin, per subject and Average
From the text: as §1

Krt-17 mRNA = assay: RT-PCR of keratin-17 mRNA relative to β-actin in SLS-irritated and control skin (tape and biopsy); set-up: key to ΔCt,Krt-17, Tape, SLS / ΔCt,Krt-17, Biopsy, SLS: ΔCt: keratin mRNA Ct normalized to β-actin Ct in same sample; settings: for ΔCt,Krt-17, Biopsy, SLS / ΔCt,Krt-17, Tape, SLS: 1% SLS occlusive patch 24 hours, mid-back, relative to β-actin, per subject 1-10 and Average; for ΔCt,Krt-17, Biopsy, SLS / Fold Increase Krt-17/βactin mRNA ratio vs. normal, Biopsy, SLS: biopsy RNA; for ΔCt,Krt-17, Biopsy, SLS / ΔCt,Krt-17, Tape, SLS / Fold Increase Krt-17/βactin mRNA ratio vs. normal, Biopsy, SLS / Fold Increase Krt-17/βactin mRNA ratio vs. normal, Tape, SLS: sulfate; for ΔCt,Krt-17, Tape, SLS / Fold Increase Krt-17/βactin mRNA ratio vs. normal, Tape, SLS: tape-stripped RNA; for Fold Increase Krt-17/βactin mRNA ratio vs. normal, Biopsy, SLS / Fold Increase Krt-17/βactin mRNA ratio vs. normal, Tape, SLS: 1% SLS patch 24 hours vs untreated skin, per subject and Average
From the text: as §1

[1] = tested on: gene expression levels in skin; assay: DNA microarray (Affymetrix HG-U133A GeneChip) of tape-harvested RNA, untreated vs water vs SLS-occluded skin; settings: threshold p=0.003, PPDE(p) 0.99
From the text: Clinical protocols: The study protocols were reviewed and approved by an independent IRB (BioMed IRB, San Diego) and all subjects signed informed consent. Ten healthy women, ages 21-55 were enrolled in the study. Regions of unblemished, normal appearing skin on the mid back were chosen for the application of 2 occlusive patches in the form of bandages approximately 4 cm×6.5 cm. The bandages were made using a clear, non-porous plastic hypoallergenic adhesive tape. In the center of this tape was a Webril (non-woven cotton) patch measuring approximately 2 cm×4.5 cm. One Webril patch contained 0.6 ml of 1% aqueous sodium lauryl sulfate and the other contained 0.6 ml of sterile water as the vehicle control. […] At 24 hours post application, the SLS and water patches were removed and the skin allowed to air dry for 15 minutes before scoring. The sites were scored by a trained technician using the scale provided below. Patched sites were large enough that two areas could be tape harvested without overlap and room left for a shave biopsy (˜2×2 mm). Skin sites were tape stripped with 4 tapes each and then a shave biopsy taken under local anesthetic (lidocaine HCl 1% and epinephrine 1:100,000; Abbott Laboratories). […] In a second study, 3 subjects had 3 patches containing 1% SLS and 3 water patches applied to the mid back for 24 hours: Patches were removed, scored and tape stripped as above. […]

## CCCCCCCCCCCCOS(=O)(=O)[O-].[Na+] [SLS, sodium lauryl sulfate]
Krt-16 mRNA; 1% SLS occlusive patch 24 hours, mid-back, biopsy RNA, relative to β-actin, per subject 1-10 and Average, sulfate
  ΔCt,Krt-16, Biopsy, SLS: 0.97 and −2.43 and −2.21 and 1.41 and −1.12 and −1.75 and −2.01 and −1.79 and 0.74 and −0.32
Krt-16 mRNA; 1% SLS occlusive patch 24 hours, mid-back, tape-stripped RNA, relative to β-actin, per subject 1-10 and Average, sulfate
  ΔCt,Krt-16, Tape, SLS: −4.51 and 3.04 and 3.96 and −2.87 and 0.53 (2×) and 3.1 and 4.32 and 2.87 and −0.97
Krt-16 mRNA; 1% SLS patch 24 hours vs untreated skin, biopsy RNA, per subject and Average, sulfate
  Fold Increase Krt-16/actin mRNA ratio vs. normal, Biopsy, SLS: 14.73 fold and 76.61 fold and 55.14 fold and 18.4 fold and 30.85 fold and 113.69 fold and 108.78 fold and 82.98 fold and 8.57 fold and 24.78 fold
Krt-16 mRNA; 1% SLS patch 24 hours vs untreated skin, tape-stripped RNA, per subject and Average, sulfate
  Fold Increase Krt-16/actin mRNA ratio vs. normal, Tape, SLS: 1.25 fold and 0.03 fold and 0.01 fold and 0.2 fold and 0.02 fold and 0.04 fold and 0.17 fold
Krt-16 mRNA; SLS-treated skin vs untreated
  average decrease in K16 expression, tape: 9 fold
  average fold-increase of K16 mRNA expression, biopsy: 39 fold
Krt-10 mRNA
  ΔCt,Krt-10, Biopsy, SLS: −4.28 and −0.24 and −3.09 and −6.35 and −4 and 0.4 and −2 and −2.7 and 1.91 and −5.97
  ΔCt,Krt-10, Tape, SLS: −2.76 and 3.68 and 8.19 and −0.3 and 0.93 and 5.1 and 1.03 and 4.17 and 3.81 and −0.81
  Fold Increase Krt-10/β-actin mRNA vs. normal, Biopsy, SLS: 0.15 fold and 0.01 fold (2×) and 0.06 fold (2×) and 0.65 fold and 0.1 fold and 0.03 fold and <0.001 fold and 0.57 fold
  Fold Increase Krt-10/β-actin mRNA vs. normal, Tape, SLS: 1.55 fold and 0.03 fold and <0.001 fold and 0.01 fold (3×) and 0.31 fold and 1.22 fold
Krt-10 mRNA; mean
  ΔCt,Krt-10, Biopsy, SLS: −2.63
  ΔCt,Krt-10, Tape, SLS: 2.30
  Fold Increase Krt-10/β-actin mRNA vs. normal, Biopsy, SLS: 0.05 fold
  Fold Increase Krt-10/β-actin mRNA vs. normal, Tape, SLS: 0.06 fold
Krt-10 mRNA; SLS treatment vs untreated skin, tape and biopsy virtually identical
  average decrease in K10 expression: ~20 fold
Krt-17 mRNA
  ΔCt,Krt-17, Biopsy, SLS: 0.71 and −2.29 and −2.5 and 1.13 and −1.97 and −1.63 and −2.91 and −1.75 and −1.86 and −0.11
  ΔCt,Krt-17, Tape, SLS: −5.12 and 1.64 and 1.5 and −4.87 and −1.79 and 1.11 and −1.84 and 1.38 and 0.21 and −2.12
  Fold Increase Krt-17/βactin mRNA ratio vs. normal, Biopsy, SLS: 13.31 fold and 94.54 fold and 44.95 fold and 4.51 fold and 27.19 fold and 15.44 fold and 459.45 fold and 195.94 fold and 48.35 fold and 41.13 fold
  Fold Increase Krt-17/βactin mRNA ratio vs. normal, Tape, SLS: 1.67 fold and 0.02 fold (2×) and 0.01 fold and 0.17 fold and 0.05 fold and 0.04 fold and 0.5 fold
Krt-17 mRNA; mean
  ΔCt,Krt-17, Biopsy, SLS: −1.32
  ΔCt,Krt-17, Tape, SLS: −0.99
  Fold Increase Krt-17/βactin mRNA ratio vs. normal, Biopsy, SLS: 42.52 fold
  Fold Increase Krt-17/βactin mRNA ratio vs. normal, Tape, SLS: 0.12 fold
Krt-17 mRNA; SLS-treated skin vs untreated
  average fold-increase of K17, biopsy: 42 fold
  decrease of K17/actin mRNA ratio, tape: 8 fold
[1]
  number of genes differentially expressed, SLS vs water treated: 1,364 genes
